The experiment is described as follows: Effect on blood pressure, telemetry (Example 17). The experiment is classed as in vivo. The conditions noted are these: Sprague Dawley rats, 0.1 mg/kg SC. The procedure: The effect of the compounds on blood pressure was determined in telemetry studies in Sprague Dawley rats at a dosage of 0.1 mg/kg SC.
The rats were previously implanted with a telemetry device (DSI, Saint-Paul, USA, HD-S10, HD-S11 or HD S21) and allowed to recover for a minimum period of 2 weeks before treatment with vehicle or the different peptides. Blood pressure (BP) was recorded through a catheter inserted into the abdominal aorta. The device body was placed in the abdomen. At the end of surgery, animals were placed in individual cages until the end of the study.
Pressure signals were recorded for one hour before the treatment (basal period). Thereafter, the subcutaneous administration of the test compound or its vehicle was performed, under continuous recording of the signal over a 48-hour period. Data acquisition was performed using Hem 4.3 acquisition software (Notocord®, Le Pecq, France) connected to the telemetry device. Hemodynamic parameters were recorded during a […] before treatment and every 4-hour period following subcutaneous administration over 48 hours.
Investigated parameters (calculated from BP signal) were Heart Rate (HR) in beats per minute (bpm), Diastolic and Systolic Blood Pressure (DBP) in mmHg, and Mean Blood Pressure (MBP) in mmHg.
Data from Hem were manipulated using Microsoft Excel®. For each parameter, a basal value was determined as the average calculated over a 1-hour period during the pre-treatment sequence, and the values post treatment were calculated over 4-hour periods ([0-4], [4-8], [8-12], [12-16], [16-20], [20-24], [24-28], [32-36], [36-40], [40-44] and [44-48] hours) covering the 48-hour period following administration.
Representative data are presented in Table 15 below, in which “n” represents the number of animals for which individual values were obtained and “Duration” indicates the last time point for which a significant effect on BP was still seen: Table 15

Starred links: 1 amine or outer side, 2 acyl side, 3 side chain; linkers in the order of their positions; H or OH if unused. Non-standard residues stand in square brackets, D forms with d. Residues, ends and D or L forms follow the SMILES beside them. Groups on a side chain read outwards from the residue. *: point of attachment. C18 diacid = O=C(O)CCCCCCCCCCCCCCCCC(=O)*; γGlu = O=C(O)[C@H](CCC(=O)[*:2])N[*:1]; AEEA = NCCOCCOCC(=O)O; Aib = CC(C)(N)C(=O)O

For `CC[C@H](C)[C@H](N)C(=O)N[C@H](C(=O)N[C@@H](CC(C)C)C(=O)N[C@@H](CO)C(=O)N[C@@H](CC(C)C)C(=O)N[C@@H](CC(=O)O)C(=O)N[C@@H](C(=O)N1CCC[C@H]1C(=O)N[C@H](C(=O)N[C@@H](CCCCN)C(=O)N[C@@H](CC(C)C)C(=O)N[C@@H](CCCCNC(=O)COCCOCCNC(=O)COCCOCCNC(=O)CC[C@H](NC(=O)CCCCCCCCCCCCCCCCC(=O)O)C(=O)O)C(=O)N[C@@H](CCC(N)=O)C(=O)N[C@H](C(=O)N[C@@H](CC(C)C)C(=O)N[C@@H](CC(C)C)C(=O)N[C@@H](CCC(=O)O)C(=O)N[C@@H](CCC(N)=O)C(=O)N[C@@H](C)C(=O)N[C@@H](CCCNC(=N)N)C(=O)N[C@@H](CCC(N)=O)C(=O)N[C@@H](CCCCN)C(=O)NC(C)(C)C(=O)N[C@@H](CCC(N)=O)C(=O)N[C@@H](CCCNC(=N)N)C(=O)N[C@@H](C)C(=O)N[C@@H](CCC(N)=O)C(=O)N[C@@H](C)C(=O)N[C@@H](CCC(=O)O)C(=O)N[C@@H](CCCCN)C(=O)N[C@@H](CC(N)=O)C(=O)N[C@@H](CCCCN)C(=O)N[C@@H](CCCNC(=N)N)C(=O)N[C@H](C(=O)N[C@@H](CC(C)C)C(=O)N[C@@H](CCC(=O)O)C(=O)N[C@@H](CCCNC(=N)N)C(=O)N[C@H](C(N)=O)C(C)C)[C@@H](C)CC)[C@@H](C)CC)[C@@H](C)CC)C(C)C)C(C)C` [SEQ ID NO: 140, IVLSLDvPIKLK*QILLEQARQKAibQRAQAEKNKRILERV-NH2] (H-IVLSLD[dV]PIKLK([AEEA-AEEA-γGlu-C18 diacid])QILLEQARQK[Aib]QRAQAEKNKRILERV-NH2), the “Duration (h): last time point for which a significant effect on BP was still seen” value is 32 h, the “Effect on Systolic Pressure % change from baseline 8 h” value is −19.9% and the “Effect on Systolic Pressure % change from baseline 24 h” value is on record as −3.0%.
The like results for `CC[C@H](C)[C@H](N)C(=O)N[C@H](C(=O)N[C@@H](CC(C)C)C(=O)N[C@@H](CO)C(=O)N[C@@H](CC(C)C)C(=O)N[C@@H](CC(=O)O)C(=O)N[C@@H](C(=O)N1CCC[C@H]1C(=O)N[C@H](C(=O)N[C@@H](CCCCN)C(=O)N[C@@H](CC(C)C)C(=O)N[C@@H](CCCCNC(=O)COCCOCCNC(=O)COCCOCCNC(=O)CC[C@H](NC(=O)CCCCCCCCCCCCCCCCC(=O)O)C(=O)O)C(=O)N[C@@H](CCC(N)=O)C(=O)N[C@H](C(=O)N[C@@H](CC(C)C)C(=O)N[C@@H](CC(C)C)C(=O)N[C@@H](CCCCN)C(=O)N[C@@H](CCC(N)=O)C(=O)N[C@@H](C)C(=O)N[C@@H](CCCNC(=N)N)C(=O)N[C@@H](CCC(N)=O)C(=O)N[C@@H](CCCCN)C(=O)NC(C)(C)C(=O)N[C@@H](CCC(N)=O)C(=O)N[C@@H](CCCNC(=N)N)C(=O)N[C@@H](C)C(=O)N[C@@H](CCC(N)=O)C(=O)N[C@@H](C)C(=O)N[C@@H](CCC(=O)O)C(=O)N[C@@H](CCCCN)C(=O)N[C@@H](CC(N)=O)C(=O)N[C@@H](CCCCN)C(=O)N[C@@H](CCCNC(=N)N)C(=O)N[C@H](C(=O)N[C@@H](CC(C)C)C(=O)N[C@@H](CCC(=O)O)C(=O)N[C@@H](CCCNC(=N)N)C(=O)N[C@H](C(N)=O)C(C)C)[C@@H](C)CC)[C@@H](C)CC)[C@@H](C)CC)C(C)C)C(C)C` [SEQ ID NO: 141, IVLSLDvPIKLK*QILLKQARQKAibQRAQAEKNKRILERV-NH2] (H-IVLSLD[dV]PIKLK([AEEA-AEEA-γGlu-C18 diacid])QILLKQARQK[Aib]QRAQAEKNKRILERV-NH2) were, in that order, 24 h, −5.2% and −4.2%.
The like results for `CC[C@H](C)[C@H](N)C(=O)N[C@H](C(=O)N[C@@H](CC(C)C)C(=O)N[C@@H](CO)C(=O)N[C@@H](CC(C)C)C(=O)N[C@@H](CC(=O)O)C(=O)N[C@@H](C(=O)N1CCC[C@H]1C(=O)N[C@H](C(=O)N[C@@H](CCCCN)C(=O)N[C@@H](CC(C)C)C(=O)N[C@@H](CCCCNC(=O)COCCOCCNC(=O)COCCOCCNC(=O)CC[C@H](NC(=O)CCCCCCCCCCCCCCCCC(=O)O)C(=O)O)C(=O)N[C@@H](CCC(N)=O)C(=O)N[C@H](C(=O)N[C@@H](CC(C)C)C(=O)N[C@@H](CC(C)C)C(=O)N[C@@H](CCC(=O)O)C(=O)N[C@@H](CCC(N)=O)C(=O)N[C@@H](C)C(=O)N[C@@H](CCCNC(=N)N)C(=O)N[C@@H](CCC(N)=O)C(=O)N[C@@H](CCCCN)C(=O)NC(C)(C)C(=O)N[C@@H](CCC(N)=O)C(=O)N[C@@H](CCCNC(=N)N)C(=O)N[C@@H](CCC(=O)O)C(=O)N[C@@H](CCC(N)=O)C(=O)N[C@@H](C)C(=O)N[C@@H](CCC(=O)O)C(=O)N[C@@H](CCCCN)C(=O)N[C@@H](CC(N)=O)C(=O)N[C@@H](CCCCN)C(=O)N[C@@H](CCCNC(=N)N)C(=O)N[C@H](C(=O)N[C@@H](CC(C)C)C(=O)N[C@@H](CCC(=O)O)C(=O)N[C@@H](CCCNC(=N)N)C(=O)N[C@H](C(N)=O)C(C)C)[C@@H](C)CC)[C@@H](C)CC)[C@@H](C)CC)C(C)C)C(C)C` [SEQ ID NO: 142, IVLSLDvPIKLK*QILLEQARQKAibQREQAEKNKRILERV-NH2] (H-IVLSLD[dV]PIKLK([AEEA-AEEA-γGlu-C18 diacid])QILLEQARQK[Aib]QREQAEKNKRILERV-NH2) were, in that order, 30 h, −22.2% and −6.5%.
Turning to `CC[C@H](C)[C@H](N)C(=O)N[C@H](C(=O)N[C@@H](CC(C)C)C(=O)N[C@@H](CO)C(=O)N[C@@H](CC(C)C)C(=O)N[C@@H](CC(=O)O)C(=O)N[C@@H](C(=O)N1CCC[C@H]1C(=O)N[C@H](C(=O)N[C@@H](CCCCN)C(=O)N[C@@H](CC(C)C)C(=O)N[C@@H](CCCCNC(=O)COCCOCCNC(=O)COCCOCCNC(=O)CC[C@H](NC(=O)CCCCCCCCCCCCCCCCC(=O)O)C(=O)O)C(=O)N[C@@H](CCC(N)=O)C(=O)N[C@H](C(=O)N[C@@H](CC(C)C)C(=O)N[C@@H](CC(C)C)C(=O)N[C@@H](CCCCN)C(=O)N[C@@H](CCC(N)=O)C(=O)N[C@@H](CCC(=O)O)C(=O)N[C@@H](CCCNC(=N)N)C(=O)N[C@@H](CCC(N)=O)C(=O)N[C@@H](CCCCN)C(=O)N[C@@H](CCCCN)C(=O)NC(C)(C)C(=O)N[C@@H](CCCNC(=N)N)C(=O)N[C@@H](CCC(=O)O)C(=O)N[C@@H](CCC(N)=O)C(=O)N[C@@H](C)C(=O)N[C@@H](CCC(=O)O)C(=O)N[C@H](C(=O)N[C@@H](CC(N)=O)C(=O)N[C@@H](CCCCN)C(=O)N[C@@H](CCCNC(=N)N)C(=O)N[C@H](C(=O)N[C@@H](CC(C)C)C(=O)N[C@@H](CCC(=O)O)C(=O)N[C@@H](CCCNC(=N)N)C(=O)N[C@H](C(N)=O)C(C)C)[C@@H](C)CC)[C@@H](C)O)[C@@H](C)CC)[C@@H](C)CC)C(C)C)C(C)C` [SEQ ID NO: 149, IVLSLDvPIKLK*QILLKQERQKKAibREQAETNKRILERV-NH2] (H-IVLSLD[dV]PIKLK([AEEA-AEEA-γGlu-C18 diacid])QILLKQERQKK[Aib]REQAETNKRILERV-NH2), the “Duration (h): last time point for which a significant effect on BP was still seen” value came out at 30 h, the “Effect on Systolic Pressure % change from baseline 8 h” value is listed as −11.5% and the “Effect on Systolic Pressure % change from baseline 24 h” value is listed as −2.5%.
The like results for `CC[C@H](C)[C@H](N)C(=O)N[C@H](C(=O)N[C@@H](CC(C)C)C(=O)N[C@@H](CO)C(=O)N[C@@H](CC(C)C)C(=O)N[C@@H](CC(=O)O)C(=O)N[C@@H](C(=O)N1CCC[C@H]1C(=O)N[C@H](C(=O)NCC(=O)N[C@@H](CC(C)C)C(=O)N[C@@H](CCCCNC(=O)COCCOCCNC(=O)COCCOCCNC(=O)CC[C@H](NC(=O)CCCCCCCCCCCCCCCCC(=O)O)C(=O)O)C(=O)N[C@@H](CCC(N)=O)C(=O)N[C@H](C(=O)N[C@@H](CC(C)C)C(=O)N[C@@H](CC(C)C)C(=O)N[C@@H](CCCCN)C(=O)N[C@@H](CCC(N)=O)C(=O)N[C@@H](CCC(=O)O)C(=O)N[C@@H](CCCNC(=N)N)C(=O)N[C@@H](CCC(N)=O)C(=O)N[C@@H](CCCCN)C(=O)N[C@@H](CCCCN)C(=O)NC(C)(C)C(=O)N[C@@H](CCCNC(=N)N)C(=O)N[C@@H](CCC(=O)O)C(=O)N[C@@H](CCC(N)=O)C(=O)N[C@@H](C)C(=O)N[C@@H](CCC(=O)O)C(=O)N[C@@H](CCCCN)C(=O)N[C@@H](CC(N)=O)C(=O)N[C@@H](CCCCN)C(=O)N[C@@H](CCCNC(=N)N)C(=O)N[C@H](C(=O)N[C@@H](CC(C)C)C(=O)N[C@@H](CCC(=O)O)C(=O)N[C@@H](CCCNC(=N)N)C(=O)N[C@H](C(N)=O)C(C)C)[C@@H](C)CC)[C@@H](C)CC)[C@@H](C)CC)C(C)C)C(C)C` [SEQ ID NO: 151, IVLSLDvPIGLK*QILLKQERQKKAibREQAEKNKRILERV-NH2] (H-IVLSLD[dV]PIGLK([AEEA-AEEA-γGlu-C18 diacid])QILLKQERQKK[Aib]REQAEKNKRILERV-NH2) were, in that order, 28 h, −12.3% and −3.8%.

Source of the values: patent US12679878B2, “CRF2 receptor agonists and their use in therapy” (SANOFI, priority 2020, dated 2026).
